Here are results for 5 molecules from patent US6838436B1, “Inhibitors of proteasomal activity for stimulating bone growth” (Osteoscreen Inc., priority 1998, dated 2005).

Where two headings read alike, the source gives them in different places. Where a SMILES comes first, the peptide text is derived from it. [ ]: non-standard residue; d: D form. The star is where a group is joined. Nva = CCC[C@H](N)C(=O)O; Cbz = O=C(OCc1ccccc1)*; OtBu = CC(C)(C)O*

The target in assay [1] is T1, 20S thermophila proteasome (Methanosarcina thermophila, UniProt Q9P992).
T1 construct: purchased CalBiochem, San Diego, Calif
T1 sequence (Q9P992 10-210): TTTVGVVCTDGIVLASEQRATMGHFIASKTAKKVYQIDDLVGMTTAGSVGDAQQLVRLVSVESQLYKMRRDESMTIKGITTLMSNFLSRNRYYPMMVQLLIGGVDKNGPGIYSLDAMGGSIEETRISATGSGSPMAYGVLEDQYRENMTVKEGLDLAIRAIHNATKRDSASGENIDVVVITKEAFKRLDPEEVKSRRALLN
T1 sequence (Q59565 1-247 partner): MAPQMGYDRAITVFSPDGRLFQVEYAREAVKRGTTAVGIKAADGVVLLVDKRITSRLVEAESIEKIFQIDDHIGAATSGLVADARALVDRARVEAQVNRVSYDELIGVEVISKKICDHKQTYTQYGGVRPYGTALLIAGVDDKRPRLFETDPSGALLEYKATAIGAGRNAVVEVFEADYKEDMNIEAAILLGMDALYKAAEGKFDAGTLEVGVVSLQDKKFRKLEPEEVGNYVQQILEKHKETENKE
As to the kind of experiment: biochemical. As for the experimental part:
The assay involves incubating the potential inhibitor with 20S thermophila proteasomes which, in purified form, are commercially available, with a fluorogenic peptide substrate. The presence of an inhibitor will reduce the amount of fluorescence generated by the action of the proteasome fraction on the fluorogenic peptide. This assay is described in further detail in Coux, O., et al., N Rev Biochem (1996) 65:801; Adams, J., et al., Cancer Res (1999) 59:2615; and Craiu, A., et al., J Biol Chem (1997) 272:13437. Further reports are set forth in Hilt, W., et al., Trans Biochem Sci (1996) 21:96; Peters, J., Trends Biochem Sci (1994) 19:377; Maupin-Furlow, J. A., et al., J Biol Chem (1995) 270:28617; and Jensen, T. J., et al., Cell (1995) 83:129. Fluorogenic substrates and purified proteasomes are available, for example, from CalBiochem, San Diego, Calif.
Purified 20S thermophila proteasomes and the fluorogenic peptide substrate Suc-Leu-Leu-Val-Tyr-AMC (SEQ ID NO:3) are available from CalBiochem, San Diego, Calif. Briefly, serial dilutions of the inhibitor to be tested were mixed with proteasome solution at a concentration of proteasome of 0.01 mg/ml. After 30 min incubation at 37° C., substrate solution at a final concentration of 25-30 μg/ml was added and the mixture incubated at 37° C. and then read at 15 min, 30 min, and 60 min in a Fluoroscan instrument. The percentage diminution in fluorescence in the presence as compared to the absence of inhibitor is then calculated.

The subject of assay [2] is hair follicles of skin explants. Briefly: Skin explants from mice during telogen (Example 16). Type of assay: cell-based. Conditions: 72 hours. An excerpt: In the untreated control explants, the follicles were few and small.
In assay [3] the test system is hair follicles. As to the kind of experiment: Hair follicle number after injection over the calvaria (Example 8). The settings on record: for number of hair follicles: administered in the same way. Type of assay: in vivo, Swiss ICR mice. An excerpt: The assay described above to assess the effect of compounds on calvarial bone growth can also be used to assess the ability of compounds to stimulate hair growth. The test compound or appropriate control vehicle is applied to the upper and lower back of male ICR Swiss white mice either topically or by subcutaneous injection. The vehicle is selected as appropriate for the compound to be tested and for the route of administration. Optionally, the hair in the test area may be removed prior to administration. After a suitable interval, typically 7 days, the mice are anesthetized and a biopsy of the dorsal treatment area is taken using a 6 mm dermal punch. The specimens are fixed in 10% buffered formalin and imbedded in paraffin wax, and sectioned and stained to observe hair follicles. In addition, photography can be used to observe and record hair growth; typically such growth is observed after 14-18 days. After a suitable interval, typically 21 days, the animals may be euthanized and the hair analyzed for fiber analysis and the tissue from the treatment area analyzed for quantitation of hair follicles.
In more detail, male ICR Swiss white mice, aged 4-6 weeks and weighing 13-26 gm, are employed, using 4-5 mice per group. The calvarial bone growth assay is performed as described above. Briefly, the test compound or appropriate control vehicle is injected into the subcutaneous tissue over the right calvaria of normal mice. Typically, the control vehicle is the vehicle in which the compound was solubilized, and is PBS containing 5% DMSO or is PBS containing Tween (2 μl/10 ml). The animals are sacrificed on day 14 and bone growth measured by histomorphometry. Bone samples for quantitation are cleaned from adjacent tissues and fixed in 10% buffered formalin for 24-48 hours, decalcified in 14% EDTA for 1-3 weeks, processed through graded alcohols; and embedded in paraffin wax. Three to five […] sections of the calvaria are prepared, and representative sections are selected for histomorphometric assessment of the effects on bone formation and bone resorption. Sections are measured by using a camera lucida attachment to trace directly the microscopic image onto a digitizing plate. Bone changes are measured on sections cut 200 μm apart, over 4 adjacent 1×1 mm fields on both the injected and noninjected sides of the calvaria. New bone is identified by its characteristic woven structure, and osteoclasts and osteoblasts are identified by their distinctive morphology. Histomorphometry software (OsteoMeasure, Osteometrix, Inc., Atlanta) is used to process digitizer input to determine cell counts and measure areas or perimeters.
The in vivo bone calvarial growth assay of Example 3 was modified to observe the number of hair follicles in treated mice. […]

The mark [4] stands for this setting: read-out: Proteasome Activity (ED50-μM).
[5] abbreviates: read-out: % Proteasomal Activity.

The IC50 is the midpoint of a concentration-inhibition curve. Low readings indicate inhibition by little substance, high ones a need for much substance.

For `CC[C@H](C)[C@H](NC(=O)[C@H]([C@@H](C)CC)N(C)C(C)=O)C(=O)N[C@H](C(=O)N[C@@H](CC(C)C)C(=O)[C@@]1(C)CO1)[C@@H](C)O` [Epoxomicin], the IC50 in assay [1] was roughly 60 nM. Besides, the “hair follicle diameter and follicle elongation” value in assay [2] (25 nM) is “obvious increase in hair follicle diameter, and follicle elongation”.

Take `CC(=O)N[C@@H](CSC(=O)[C@]1([C@@H](O)C(C)C)NC(=O)[C@H](C)[C@@H]1O)C(=O)O` [Lactacystin, lactacystin]: the EC50 in assay [1] is 1.5 µM. For the same molecule, the “number of hair follicles” value in assay [3] (dose not given) is given as “stimulated an increase in the number of hair follicles”.

In the case of `CCC[C@@H](C=O)NC(=O)[C@H](CC(C)C)NC(=O)[C@H](CC(C)C)NC(=O)OCc1ccccc1` [MG-115, N-carbobenzoyl-Leu-Leu-Nva-CHO] (Cbz-Leu-Leu-[Nva]-aldehyde), the EC50 in assay [1] (setting [4]) was determined as 1 µM. Moreover, the “number of hair follicles” value in assay [3] (10 mg/kg) is on record as “stimulated an increase in the number of hair follicles”.

In assay [1], `CC[C@H](C)[C@H](NC(=O)OCc1ccccc1)C(=O)N[C@@H](CCC(=O)OC(C)(C)C)C(=O)N[C@@H](C)C(=O)N[C@H](C=O)CC(C)C` [PSI, N-carbobenzoyl-Ile-Glu-(OtBu)-Ala-Leu-CHO] (Cbz-IE(OtBu)AL-aldehyde) gave an EC50 of 0.035 µM and an IC50 of roughly 60 nM. In assay [1] (setting [5]), the remaining activity at 0.002 µM worked out at 100%, the remaining activity at 0.004 µM was 95%, the remaining activity at 0.008 µM was found to be 94% and the remaining activity at 0.016 µM was 86%. In assay [1] (setting [5]), the remaining activity at 0.032 µM was found to be 76%, the remaining activity at 0.062 µM amounted to 54%, the remaining activity at 0.125 µM is 30% and the remaining activity at 0.25 µM is 11%. For the same molecule, in assay [1] (setting [5]), the remaining activity at 0.5 µM is 6% and the remaining activity at 1 µM amounted to 5%. For the same molecule, in assay [3] (5mg/kg/day injected three times a day for 5 days over the calvaria, sacrificed sixteen days later), the “number of hair follicles versus control mice” value was “strikingly large increase in the number of hair follicles”. Also, the “hair follicle diameter and follicle elongation” value in assay [2] (50 nM) was “obvious increase in hair follicle diameter, and follicle elongation”.

On to `CC(C)C[C@@H](C=O)NC(=O)[C@@H](CC(C)C)NC(=O)[C@H](CC(C)C)NC(=O)OCc1ccccc1` [MG-132, N-carbobenzoyl-Leu-Leu-Leu-CHO] (Cbz-Leu-[dL]-Leu-aldehyde), for which, in assay [1] (setting [5]), the remaining activity at 0.002 µM turned out to be 101%, the remaining activity at 0.004 µM stood at 99%, the remaining activity at 0.008 µM is 101% and the remaining activity at 0.016 µM amounted to 100%. Also, in assay [1] (setting [5]), the remaining activity at 0.032 µM stood at 98%, the remaining activity at 0.062 µM amounted to 90%, the remaining activity at 0.125 µM was found to be 87% and the remaining activity at 0.25 µM turned out to be 73%. In assay [1] (setting [5]), the remaining activity at 0.5 µM is 57%, the remaining activity at 1 µM amounted to 44% and the remaining activity at 2 µM amounted to 19%. Also, the EC50 in assay [1] (setting [4]) is 0.3 µM. Further, the “number of hair follicles” value in assay [3] (10 mg/kg) was “stimulated an increase in the number of hair follicles”.
